{"source": "patent US20220184037A1", "about": "“PHARMACEUTICAL AGENTS TARGETING CANCER STEM CELLS” (THE JOHNS HOPKINS UNIVERSITY, priority 2020, published 2022)", "experiment_in_all_cases": "MTT assay, sensitivity to erlotinib (IC50)", "type_in_all_cases": "cell-based, human", "key": {"BFTC 905 cells": {"system": "BFTC 905 cells", "settings": "BFTC 905 cells harboring an NRAS mutation, 72 hours", "description": "(§1) Embryonic kidney cell line 293, SV-40 immortalized normal human urothelial cell line (HUC1), and bladder cancer cell lines 5637, FIT-1376, J82, SCaBER, RT-4, T24, and UM-UC3 were obtained from American. Type Culture Collection (ATCC; Manassas, Va., USA). Mediums were purchased from Mediatech (Manassas, USA) and supplemented with 10% FBS (Hyclone, Logan, USA) under a 5% CO2 atmosphere at 95% relative humidity. HUC-1, T24, and 5637 cells were grown in F-12K, McCoy's 5A, and RPMI 1640 medium, respectively, and all other cells were grown Dulbecco's modified Eagle medium (DMEM). BFTC 905 and BFTC 909 cell lines were established from arsenic-exposed urothelial carcinoma subjects (9) and obtained from the German Collection of Microorganisms and Cell Cultures (Braunschweig, Germany). Re-authentification of cells was performed using PowerPlex 16 HS for short tandem repeats analysis at Genetic resource core facility, the Johns Hopkins University School of Medicine, Institute of Genetic Medicine, and all cell lines have been confirmed as authentic. To prepare in vitro arsenic model, we chronically exposed HUC1 cells to 1 μM arsenic trioxide, as described previously (10) and arsenic-exposed (As) cells and passage-matched arsenic un-exposed control (UE) cells were stock for each months until 12 months. […]\n(§2) The cell proliferative and viability activity were measured using the 3-(4,5-dimethyl thiazol-2-yl)-2,5-diphenyltetrazolium bromide (MTT) Proliferation Assay Kit (ATCC; Manassas, Va., USA) according to the manufacturer's protocol. […] Spectrophotometric readings (570 nm-650 nm) were obtained on a Spectra Max 250 96-well plate reader (Molecular devices, Sunnyvale, USA). […] Cell viability was expressed as the ratio of absorbance values of the treated cells related to the untreated control cells considered as 1.0. The half maximal (50%) inhibitory concentration (IC50) value of drug was calculated by treatment with the various concentration for 72 hours using MTT assay. […]"}, "[1]": {"system": "basal-type bladder cancer cell lines", "settings": "72 hours", "description": "as §1, §2"}, "[2]": {"system": "arsenic exposed (As)-HUC1 cells", "settings": "72 hours (FIG. 1H)", "description": "as §1, §2"}}}
{"compound": "C#Cc1cccc(Nc2ncnc3cc(OCCOC)c(OCCOC)cc23)c1", "note": "[erlotinib, Erlotinib]", "values": [{"measurement": "sensitivity to the EGFR inhibitor erlotinib", "setting": "BFTC 905 cells", "value": "resistance"}, {"measurement": "sensitivity to the EGFR inhibitor erlotinib", "setting": "[1]", "value": "sensitive"}, {"measurement": "sensitivity to the EGFR inhibitor erlotinib", "setting": "[2]", "value": "sensitive"}]}
